Counter-ions that a name gives are not always drawn.
How the values were obtained:
Assay in all cases: Anti-proliferation assay (ATPLite), Chalice synergy score
Format in all cases: cell-based
[1] = tested on: BT-474; conditions: Compound 1 in combination with the named second active agent, 72 h, mean of n = 3 experiments in triplicate
Excerpt: (§1) Cells were thawed from a liquid nitrogen preserved state.
(§2) The calculation for synergy score is provided below.
(§3) If T≧V0:100*[1−(T−V0)/(V−V0)]

[2] = tested on: HCC-1428; conditions: Compound 1 in combination with the named second active agent, 72 h, mean of n = 3 experiments in triplicate
Excerpt: as §1, §2, §3

[3] = tested on: HCC-1937; conditions: Compound 1 in combination with the named second active agent, 72 h, mean of n = 3 experiments in triplicate
Excerpt: as §1, §2, §3

[4] = tested on: HCC-1806; conditions: Compound 1 in combination with the named second active agent, 72 h, mean of n = 3 experiments in triplicate
Excerpt: as §1, §2, §3

[5] = tested on: HCC-1500; parameters: scale not given here; conditions: Compound 1 in combination with the named second active agent, 72 h, mean of n = 3 experiments in triplicate
Excerpt: as §1, §2, §3

[6] = tested on: HCC-1187; parameters: scale not given here; conditions: Compound 1 in combination with the named second active agent, 72 h, mean of n = 3 experiments in triplicate
Excerpt: as §1, §2, §3

[7] = tested on: BT-20; parameters: scale not given here; conditions: Compound 1 in combination with the named second active agent, 72 h, mean of n = 3 experiments in triplicate
Excerpt: as §1, §2, §3

[8] = tested on: MDA-MB-468; conditions: Compound 1 in combination with second active agent, mean self-cross + 2σ threshold 4.66
Excerpt: as §1, §2, §3

[9] = tested on: MDA-MB-231; conditions: Compound 1 in combination with second active agent, mean self-cross + 2σ threshold 2.61
Excerpt: as §1, §2, §3

[10] = tested on: HCC70; conditions: Compound 1 in combination with second active agent; HCC-70; mean self-cross + 2σ threshold 3.45
Excerpt: as §1, §2, §3

[11] = tested on: MDA-MB-436; conditions: Compound 1 in combination with second active agent, mean self-cross + 2σ threshold 1.91
Excerpt: as §1, §2, §3

[12] = tested on: Hs-578-T; conditions: Compound 1 in combination with second active agent, mean self-cross + 2σ threshold 4.09
Excerpt: as §1, §2, §3

[13] = tested on: MCF7; conditions: Compound 1 in combination with second active agent, mean self-cross + 2σ threshold 3.07
Excerpt: as §1, §2, §3

[14] = tested on: MDA-MB-157; conditions: Compound 1 in combination with second active agent, mean self-cross + 2σ threshold 4.68
Excerpt: as §1, §2, §3

[15] = tested on: BT-549; conditions: Compound 1 in combination with the named second active agent, 72 h, mean of n = 3 experiments in triplicate
Excerpt: as §1, §2, §3

Compound | Synergy score [1] | Synergy score [2] | Synergy score [3] | Synergy score [4] | Synergy score [5] | Synergy score [6] | Synergy score [7] | Synergy score [8] | Synergy score [9] | Synergy score [10] | Synergy score [11] | Synergy score [12] | Synergy score [13] | Synergy score [14] | Synergy score [15]
CCN(CCO)CCCOc1ccc2c(Nc3cc(CC(=O)Nc4cccc(F)c4)[nH]n3)ncnc2c1 [AZD1152-HQPA (Barasertib)] | 1.51 | 1.95 | 2.29 | 1.32 | 5.73 | 6.69 | 6.90 | – | – | – | – | – | – | – | –
CCN(CCO)CCCOc1ccc2c(Nc3cc(CC(=O)Nc4cccc(F)c4)[nH]n3)ncnc2c1 [AZD1152-HQPA(Barasertib)] | – | – | – | – | – | – | – | 9.13 | 1.42 | 9.50 | 5.60 | 2.43 | 2.57 | 1.81 | –
CC[C@@H]1C(=O)N(C)c2cnc(Nc3ccc(C(=O)NC4CCN(C)CC4)cc3OC)nc2N1C1CCCC1 [BI 2536] | 9.25 | – | 16.20 | 0.43 | 4.47 | 3.28 | 5.18 | 9.61 | 2.92 | 12.60 | 2.95 | 4.48 | 3.30 | 5.08 | 6.91
O=C(Nc1cccc(Nc2ncc(Br)c(NCCc3c[nH]cn3)n2)c1)N1CCCC1 [BX-912] | 0.87 | 2.05 | 0.44 | 0.57 | 2.11 | 4.10 | 1.32 | 8.29 | – | 6.05 | 2.50 | 6.07 | 0.69 | 6.65 | 1.52
O=C(/C=C/c1cccc(S(=O)(=O)Nc2ccccc2)c1)NO [Belinostat] | – | – | – | – | – | – | – | 6.75 | 12.40 | 10.10 | 7.84 | 7.48 | 7.66 | 7.58 | –
O=C(NC(NC(=S)Nc1ccc(F)c([N+](=O)[O-])c1)C(Cl)(Cl)Cl)C(c1ccccc1)c1ccccc1 (centres unmarked) [CGK733] | – | 0.82 | 1.48 | 1.51 | 0.55 | 2.01 | 0.72 | – | 1.64 | 3.03 | 0.84 | 2.45 | 0.66 | 1.88 | 1.74
N.N.O=C([O-])C1(C(=O)[O-])CCC1.[Pt+2] [Carboplatin] | 0.30 | 0.52 | 2.46 | 0.44 | – | 2.20 | 0.98 | 7.18 | 0.45 | 2.26 | 1.10 | 1.65 | 0.80 | 1.77 | 0.72
N#Cc1c(O)c2c(-c3ccc(-c4ccccc4O)cc3)csc2[nH]c1=O [Compound A769662] | – | 0.34 | 0.07 | 0.54 | 0.80 | 3.70 | 0.11 | 0.77 | 0.17 | 0.07 | 0.06 | 0.39 | 0.46 | 0.70 | 0.29
C[C@@H](Oc1cc(-c2cnn(C3CCNCC3)c2)cnc1N)c1c(Cl)ccc(F)c1Cl [Crizotinib] | 1.07 | – | 2.90 | 3.08 | – | 2.32 | 2.70 | – | – | 3.31 | 1.30 | – | 3.06 | 2.97 | 0.94
COc1cccc2c1C(=O)c1c(O)c3c(c(O)c1C2=O)C[C@@](O)(C(=O)CO)C[C@@H]3O[C@H]1C[C@H](N)[C@H](O)[C@H](C)O1 [Doxorubicin Hcl, Doxorubicin HCl] | 1.25 | 0.96 | 6.92 | 3.55 | 2.70 | 4.45 | 3.96 | 6.36 | – | 4.00 | 3.89 | 5.85 | – | 8.50 | 4.78
O=C(/C=C/c1cccnc1)NCCCCC1CCN(C(=O)c2ccccc2)CC1 [FK-866] | 0.60 | 0.20 | 0.60 | 0.00 | 1.15 | 0.25 | 0.30 | 0.28 | – | 0.30 | 0.97 | 5.32 | 0.04 | – | 0.11
CC1=C(C(=O)Nc2cc3cn[nH]c3cc2F)C(c2ccc(C(F)(F)F)cc2)CC(=O)N1 (centres unmarked) [GSK429286A] | – | – | 0.05 | 0.51 | 0.19 | 4.54 | – | 0.13 | 2.14 | – | 0.57 | 3.35 | 0.19 | 1.95 | 1.72
Nc1ccn([C@@H]2O[C@H](CO)[C@@H](O)C2(F)F)c(=O)n1 [Gemcitabine Hydrochloride] | 0.17 | – | 3.78 | 0.84 | 3.72 | 1.83 | 1.85 | 5.52 | 2.51 | – | 3.05 | 0.96 | 0.38 | 2.53 | 1.86
C[C@@H]1CN(CC(=O)Nc2ccc3c(c2)Cc2cccc(-c4cc(=O)cc(N5CCOCC5)o4)c2S3)C[C@H](C)O1 [KU-60019] | – | 0.11 | 0.04 | 0.38 | 0.98 | 1.24 | 0.05 | 0.19 | 0.08 | 0.21 | 0.13 | 0.11 | 0.04 | 0.13 | 0.18
NS(=O)(=O)OC[C@@H]1C[C@@H](n2ccc3c(N[C@H]4CCc5ccccc54)ncnc32)C[C@@H]1O [MLN-4924] | 8.59 | 3.68 | 9.15 | 2.90 | 1.31 | 7.09 | 1.78 | 15.10 | – | 0.46 | – | 3.55 | 0.94 | 6.73 | 2.83
Nc1ccccc1NC(=O)c1ccc(CNC(=O)OCc2cccnc2)cc1 [MS-275] | – | – | – | – | – | – | – | 9.25 | 11.70 | 9.37 | 7.83 | 8.44 | 7.69 | 8.10 | –
C/C=C1\NC(=O)[C@H]2CSSCC/C=C/[C@H](CC(=O)N[C@H](C(C)C)C(=O)N2)OC(=O)[C@H](C(C)C)NC1=O [Romidepsin] | – | – | – | – | – | – | – | 7.26 | 9.27 | 6.74 | 5.84 | – | – | 5.71 | –
CNC(=O)c1cc(Oc2ccc(NC(=O)Nc3ccc(Cl)c(C(F)(F)F)c3)cc2)ccn1 [Sorafenib] | 2.32 | – | 2.10 | – | 0.69 | – | 1.16 | – | 1.55 | 2.51 | – | 1.65 | 1.18 | 0.56 | 0.00
COc1cc2nccc(Oc3ccc(NC(=O)C4(C(=O)Nc5ccc(F)cc5)CC4)cc3)c2cc1OC [XL184] | 1.51 | 1.19 | 2.15 | 1.44 | 1.20 | 1.29 | 3.67 | 1.84 | – | 1.47 | 0.90 | 3.19 | 4.34 | – | 0.52
